Experimental data from PMC10894229, “Novel antimicrobial peptides against Cutibacterium acnes designed by deep learning” (Scientific Reports, 2024).
Read-outs that look alike come from different tables or passages of the source.

System: C. acnes (BNCC 336649)
Settings: for Concentration with antimicrobial activity >50%: C. acnes; for Concentration with antimicrobial activity >50% / Category of in vitro test antimicrobial activity against C. acnes: supplementary Table 5; for Antimicrobial activity > 50% against C. acnes: broth microdilution, 48 h, OD 630 nm
Procedure: The strain of C. acnes (BNCC 336649) was cultured in Wilkins-Chalgren Anaerobe Broth (QingDao RiShui Bio-technologies, 11071) at 37 °C under an anaerobic atmosphere performed by a Labiophy HL-B automatic hypoxic workstation (Dalian, Liaoning Province, Labiophy HL-B), inflated with a gas mix of 15% carbon dioxide, 83% nitrogen, and 2% hydrogen.
Logarithmic phase growth bacteria were used for antimicrobial testing.
To determine the MIC values, the broth microdilution method was used. […] Briefly, peptide samples were prepared as a stock solution in water and then diluted. 180 μL of the bacterial suspension (10^7 CFU/mL) and 20 μL of the tested sample were added together into 96-Well Deep Well Plates and incubated 24 h for E. coli and S. aureus or 48 h for C. acnes and C. albicans. For each test, two columns of the plate were kept for sterility control (broth only) and growth control (broth with bacterial inoculums, no antibiotics). The optical density of cultures was measured at 630 nm by a microplate reader (SYNERGY-H1, BioTek, USA) to estimate bacterial growth. All experiments were conducted in triplicate. We used ciprofloxacin (CPFX) as the antibiotic control for antimicrobial testing.

Sequence | Concentration with antimicrobial activity >50% | Antimicrobial activity > 50% against C. acnes (at 25 µg/mL) | Antimicrobial activity > 50% against C. acnes (at 50 µg/mL) | Antimicrobial activity > 50% against C. acnes (at 100 µg/mL) | Category of in vitro test antimicrobial activity against C. acnes
CKAVLRWVSRLKKL [AMP-39] | 25 µg/mL | Inhibit (A peptide was deemed to have antimicrobial activity if C. acnes growth was inhibited by more than 50% at a given concentration) | Inhibit (A peptide was deemed to have antimicrobial activity if C. acnes growth was inhibited by more than 50% at a given concentration) | Inhibit (A peptide was deemed to have antimicrobial activity if C. acnes growth was inhibited by more than 50% at a given concentration) | Medium AMP
KIFWRVAKSLFKSY [AMP-30] | 100 µg/mL | No (A peptide was deemed to have antimicrobial activity if C. acnes growth was inhibited by more than 50% at a given concentration) | No (A peptide was deemed to have antimicrobial activity if C. acnes growth was inhibited by more than 50% at a given concentration) | Inhibit (A peptide was deemed to have antimicrobial activity if C. acnes growth was inhibited by more than 50% at a given concentration) | Weak AMP
AKKALKAAAKIIKWL [AMP-19] | 25 µg/mL | Inhibit (A peptide was deemed to have antimicrobial activity if C. acnes growth was inhibited by more than 50% at a given concentration) | Inhibit (A peptide was deemed to have antimicrobial activity if C. acnes growth was inhibited by more than 50% at a given concentration) | Inhibit (A peptide was deemed to have antimicrobial activity if C. acnes growth was inhibited by more than 50% at a given concentration) | Medium AMP
KRLIKWLNVAKKVV [AMP-3] | 100 µg/mL | No (A peptide was deemed to have antimicrobial activity if C. acnes growth was inhibited by more than 50% at a given concentration) | No (A peptide was deemed to have antimicrobial activity if C. acnes growth was inhibited by more than 50% at a given concentration) | Inhibit (A peptide was deemed to have antimicrobial activity if C. acnes growth was inhibited by more than 50% at a given concentration) | Weak AMP
KKLAGLAWKALRKAK [AMP-6] | 100 µg/mL | No (A peptide was deemed to have antimicrobial activity if C. acnes growth was inhibited by more than 50% at a given concentration) | No (A peptide was deemed to have antimicrobial activity if C. acnes growth was inhibited by more than 50% at a given concentration) | Inhibit (A peptide was deemed to have antimicrobial activity if C. acnes growth was inhibited by more than 50% at a given concentration) | Weak AMP
KRIGSILGRWLHLAK [AMP-2] | 25 µg/mL | Inhibit (A peptide was deemed to have antimicrobial activity if C. acnes growth was inhibited by more than 50% at a given concentration) | Inhibit (A peptide was deemed to have antimicrobial activity if C. acnes growth was inhibited by more than 50% at a given concentration) | Inhibit (A peptide was deemed to have antimicrobial activity if C. acnes growth was inhibited by more than 50% at a given concentration) | Medium AMP
AIHKLAHHIAKLAKK [AMP-35] | no | No (A peptide was deemed to have antimicrobial activity if C. acnes growth was inhibited by more than 50% at a given concentration) | No (A peptide was deemed to have antimicrobial activity if C. acnes growth was inhibited by more than 50% at a given concentration) | No (A peptide was deemed to have antimicrobial activity if C. acnes growth was inhibited by more than 50% at a given concentration) | No AMP
WLSKTAKKLWNVFKS [AMP-15] | 25 µg/mL | Inhibit (A peptide was deemed to have antimicrobial activity if C. acnes growth was inhibited by more than 50% at a given concentration) | Inhibit (A peptide was deemed to have antimicrobial activity if C. acnes growth was inhibited by more than 50% at a given concentration) | Inhibit (A peptide was deemed to have antimicrobial activity if C. acnes growth was inhibited by more than 50% at a given concentration) | Medium AMP
ALIKKLERTLRKAI [AMP-37] | no | No (A peptide was deemed to have antimicrobial activity if C. acnes growth was inhibited by more than 50% at a given concentration) | No (A peptide was deemed to have antimicrobial activity if C. acnes growth was inhibited by more than 50% at a given concentration) | No (A peptide was deemed to have antimicrobial activity if C. acnes growth was inhibited by more than 50% at a given concentration) | No AMP
GKLKKIWKNFGKIIK [AMP-20] | 25 µg/mL | Inhibit (A peptide was deemed to have antimicrobial activity if C. acnes growth was inhibited by more than 50% at a given concentration) | Inhibit (A peptide was deemed to have antimicrobial activity if C. acnes growth was inhibited by more than 50% at a given concentration) | Inhibit (A peptide was deemed to have antimicrobial activity if C. acnes growth was inhibited by more than 50% at a given concentration) | Medium AMP
NRWLKAAKVAAKVI [AMP-36] | no | No (A peptide was deemed to have antimicrobial activity if C. acnes growth was inhibited by more than 50% at a given concentration) | No (A peptide was deemed to have antimicrobial activity if C. acnes growth was inhibited by more than 50% at a given concentration) | No (A peptide was deemed to have antimicrobial activity if C. acnes growth was inhibited by more than 50% at a given concentration) | No AMP
VKRLKKAFKKLARLV [AMP-32] |  | No (A peptide was deemed to have antimicrobial activity if C. acnes growth was inhibited by more than 50% at a given concentration) | Inhibit (A peptide was deemed to have antimicrobial activity if C. acnes growth was inhibited by more than 50% at a given concentration) | Inhibit (A peptide was deemed to have antimicrobial activity if C. acnes growth was inhibited by more than 50% at a given concentration) | Medium AMP
GFKRIVHRLTKWLA [AMP-11] | 12.5 µg/mL | Inhibit (A peptide was deemed to have antimicrobial activity if C. acnes growth was inhibited by more than 50% at a given concentration) | Inhibit (A peptide was deemed to have antimicrobial activity if C. acnes growth was inhibited by more than 50% at a given concentration) | Inhibit (A peptide was deemed to have antimicrobial activity if C. acnes growth was inhibited by more than 50% at a given concentration) | Strong AMP
VKRILKWAFK [AMP-1] |  | No (A peptide was deemed to have antimicrobial activity if C. acnes growth was inhibited by more than 50% at a given concentration) | Inhibit (A peptide was deemed to have antimicrobial activity if C. acnes growth was inhibited by more than 50% at a given concentration) | Inhibit (A peptide was deemed to have antimicrobial activity if C. acnes growth was inhibited by more than 50% at a given concentration) | Medium AMP
